Test results: the NIST ThermoML archive (doi:10.1016/j.jct.2003.09.004)
± gives the expanded uncertainty stated by the source.

What was measured:
[1] = excess molar enthalpy (molar enthalpy of mixing); xn = mol fraction of the nth substance listed; details: 298.15 K, 101.33 kPa, Liquid, Flow calorimetry
[2] = 298.15 K, 101.33 kPa, Liquid

## CCC(C)CC [3-methylpentane] + C=CCCCC
[1]; x2 = 0.0501
  excess molar enthalpy: 0.00244 ± 0.000206 kcal/mol
[1]; x2 = 0.1001
  excess molar enthalpy: 0.00478 ± 0.000225 kcal/mol
[1]; x2 = 0.1533
  excess molar enthalpy: 0.00687 ± 0.000239 kcal/mol
[1]; x2 = 0.2001
  excess molar enthalpy: 0.00842 ± 0.000239 kcal/mol
[1]; x2 = 0.2501
  excess molar enthalpy: 0.00987 ± 0.000263 kcal/mol
[1]; x2 = 0.3
  excess molar enthalpy: 0.0111 ± 0.000263 kcal/mol
[1]; x2 = 0.3495
  excess molar enthalpy: 0.0119 ± 0.000287 kcal/mol
[1]; x2 = 0.3995
  excess molar enthalpy: 0.0126 ± 0.000287 kcal/mol
[1]; x2 = 0.45
  excess molar enthalpy: 0.013 ± 0.000287 kcal/mol
[1]; x2 = 0.4995
  excess molar enthalpy: 0.0131 ± 0.000287 kcal/mol
[1]; x2 = 0.5498
  excess molar enthalpy: 0.0129 ± 0.000287 kcal/mol
[1]; x2 = 0.5997
  excess molar enthalpy: 0.0125 ± 0.000287 kcal/mol
[1]; x2 = 0.6501
  excess molar enthalpy: 0.0119 ± 0.000287 kcal/mol
[1]; x2 = 0.6994
  excess molar enthalpy: 0.0109 ± 0.000263 kcal/mol
[1]; x2 = 0.7509
  excess molar enthalpy: 0.00972 ± 0.000263 kcal/mol
[1]; x2 = 0.7999
  excess molar enthalpy: 0.00839 ± 0.000239 kcal/mol
[1]; x2 = 0.85
  excess molar enthalpy: 0.00659 ± 0.000239 kcal/mol
[1]; x2 = 0.9
  excess molar enthalpy: 0.00455 ± 0.000222 kcal/mol
[1]; x2 = 0.95
  excess molar enthalpy: 0.00235 ± 0.000206 kcal/mol

## CCC(C)(C)C [2,2-dimethylbutane] + C=CCCCC
[1]; x2 = 0.05
  excess molar enthalpy: 0.00286 ± 0.00021 kcal/mol
[1]; x2 = 0.1
  excess molar enthalpy: 0.0056 ± 0.000232 kcal/mol
[1]; x2 = 0.1576
  excess molar enthalpy: 0.00829 ± 0.000239 kcal/mol
[1]; x2 = 0.2005
  excess molar enthalpy: 0.01 ± 0.000263 kcal/mol
[1]; x2 = 0.2501
  excess molar enthalpy: 0.0116 ± 0.000287 kcal/mol
[1]; x2 = 0.3002
  excess molar enthalpy: 0.0129 ± 0.000287 kcal/mol
[1]; x2 = 0.3501
  excess molar enthalpy: 0.0138 ± 0.000287 kcal/mol
[1]; x2 = 0.4002
  excess molar enthalpy: 0.0145 ± 0.000311 kcal/mol
[1]; x2 = 0.4507
  excess molar enthalpy: 0.0149 ± 0.000311 kcal/mol
[1]; x2 = 0.4999
  excess molar enthalpy: 0.0149 ± 0.000311 kcal/mol
[1]; x2 = 0.5498
  excess molar enthalpy: 0.0147 ± 0.000311 kcal/mol
[1]; x2 = 0.5996
  excess molar enthalpy: 0.0142 ± 0.000287 kcal/mol
[1]; x2 = 0.6496
  excess molar enthalpy: 0.0134 ± 0.000287 kcal/mol
[1]; x2 = 0.7
  excess molar enthalpy: 0.0124 ± 0.000287 kcal/mol
[1]; x2 = 0.7501
  excess molar enthalpy: 0.0109 ± 0.000263 kcal/mol
[1]; x2 = 0.7999
  excess molar enthalpy: 0.00973 ± 0.000263 kcal/mol
[1]; x2 = 0.85
  excess molar enthalpy: 0.00798 ± 0.000239 kcal/mol
[1]; x2 = 0.9
  excess molar enthalpy: 0.00524 ± 0.000229 kcal/mol
[1]; x2 = 0.95
  excess molar enthalpy: 0.00272 ± 0.000208 kcal/mol

## CCC(C)(C)C [2,2-dimethylbutane]
[2]
  mass density: 644.92 ± 0.95 kg/m3

## C=CCCCC [hex-1-ene] + CC(C)CC(C)(C)C
[1]; x1 = 0.0501
  excess molar enthalpy: 0.0024 ± 0.000206 kcal/mol
[1]; x1 = 0.1001
  excess molar enthalpy: 0.00448 ± 0.000222 kcal/mol
[1]; x1 = 0.1501
  excess molar enthalpy: 0.00647 ± 0.000237 kcal/mol
[1]; x1 = 0.2075
  excess molar enthalpy: 0.00837 ± 0.000239 kcal/mol
[1]; x1 = 0.2499
  excess molar enthalpy: 0.00967 ± 0.000263 kcal/mol
[1]; x1 = 0.2998
  excess molar enthalpy: 0.0109 ± 0.000263 kcal/mol
[1]; x1 = 0.35
  excess molar enthalpy: 0.0119 ± 0.000287 kcal/mol
[1]; x1 = 0.3998
  excess molar enthalpy: 0.0128 ± 0.000287 kcal/mol
[1]; x1 = 0.4498
  excess molar enthalpy: 0.013 ± 0.000287 kcal/mol
[1]; x1 = 0.4998
  excess molar enthalpy: 0.0134 ± 0.000287 kcal/mol
[1]; x1 = 0.5497
  excess molar enthalpy: 0.0134 ± 0.000287 kcal/mol
[1]; x1 = 0.5997
  excess molar enthalpy: 0.0131 ± 0.000287 kcal/mol
[1]; x1 = 0.6499
  excess molar enthalpy: 0.0125 ± 0.000287 kcal/mol
[1]; x1 = 0.6997
  excess molar enthalpy: 0.0117 ± 0.000287 kcal/mol
[1]; x1 = 0.75
  excess molar enthalpy: 0.0105 ± 0.000263 kcal/mol
[1]; x1 = 0.7994
  excess molar enthalpy: 0.00905 ± 0.000263 kcal/mol
[1]; x1 = 0.8498
  excess molar enthalpy: 0.0074 ± 0.000239 kcal/mol
[1]; x1 = 0.9
  excess molar enthalpy: 0.00524 ± 0.000227 kcal/mol
[1]; x1 = 0.95
  excess molar enthalpy: 0.00273 ± 0.00021 kcal/mol

## CC(C)CC(C)(C)C [2,2,4-trimethylpentane]
[2]; Vibrating tube method
  mass density: 688.03 ± 0.4 kg/m3

## C=CCCCC [hex-1-ene]
[2]
  mass density: 668.73 ± 0.91 kg/m3

## CC(C)C(C)C [2,3-dimethylbutane] + C=CCCCC
[1]; x2 = 0.05
  excess molar enthalpy: 0.00357 ± 0.000217 kcal/mol
[1]; x2 = 0.1001
  excess molar enthalpy: 0.00689 ± 0.000239 kcal/mol
[1]; x2 = 0.1535
  excess molar enthalpy: 0.0101 ± 0.000263 kcal/mol
[1]; x2 = 0.2
  excess molar enthalpy: 0.0124 ± 0.000287 kcal/mol
[1]; x2 = 0.2508
  excess molar enthalpy: 0.0147 ± 0.000311 kcal/mol
[1]; x2 = 0.2997
  excess molar enthalpy: 0.0162 ± 0.000311 kcal/mol
[1]; x2 = 0.3499
  excess molar enthalpy: 0.0175 ± 0.000335 kcal/mol
[1]; x2 = 0.3997
  excess molar enthalpy: 0.0186 ± 0.000335 kcal/mol
[1]; x2 = 0.4498
  excess molar enthalpy: 0.019 ± 0.000335 kcal/mol
[1]; x2 = 0.4998
  excess molar enthalpy: 0.0189 ± 0.000335 kcal/mol
[1]; x2 = 0.5498
  excess molar enthalpy: 0.0186 ± 0.000335 kcal/mol
[1]; x2 = 0.5996
  excess molar enthalpy: 0.0179 ± 0.000335 kcal/mol
[1]; x2 = 0.6497
  excess molar enthalpy: 0.0169 ± 0.000311 kcal/mol
[1]; x2 = 0.6997
  excess molar enthalpy: 0.0154 ± 0.000311 kcal/mol
[1]; x2 = 0.7498
  excess molar enthalpy: 0.0136 ± 0.000287 kcal/mol
[1]; x2 = 0.8001
  excess molar enthalpy: 0.0117 ± 0.000287 kcal/mol
[1]; x2 = 0.8501
  excess molar enthalpy: 0.00924 ± 0.000263 kcal/mol
[1]; x2 = 0.9
  excess molar enthalpy: 0.00639 ± 0.000237 kcal/mol
[1]; x2 = 0.9499
  excess molar enthalpy: 0.00332 ± 0.000215 kcal/mol

## CCCC(C)C [2-methylpentane] + C=CCCCC
[1]; x2 = 0.0501
  excess molar enthalpy: 0.00256 ± 0.000208 kcal/mol
[1]; x2 = 0.1
  excess molar enthalpy: 0.00496 ± 0.000227 kcal/mol
[1]; x2 = 0.1504
  excess molar enthalpy: 0.00721 ± 0.000239 kcal/mol
[1]; x2 = 0.2
  excess molar enthalpy: 0.00904 ± 0.000263 kcal/mol
[1]; x2 = 0.2499
  excess molar enthalpy: 0.0106 ± 0.000263 kcal/mol
[1]; x2 = 0.3001
  excess molar enthalpy: 0.0119 ± 0.000287 kcal/mol
[1]; x2 = 0.3495
  excess molar enthalpy: 0.0128 ± 0.000287 kcal/mol
[1]; x2 = 0.4001
  excess molar enthalpy: 0.0135 ± 0.000287 kcal/mol
[1]; x2 = 0.4498
  excess molar enthalpy: 0.0139 ± 0.000287 kcal/mol
[1]; x2 = 0.4997
  excess molar enthalpy: 0.014 ± 0.000287 kcal/mol
[1]; x2 = 0.5501
  excess molar enthalpy: 0.0139 ± 0.000287 kcal/mol
[1]; x2 = 0.6
  excess molar enthalpy: 0.0135 ± 0.000287 kcal/mol
[1]; x2 = 0.6501
  excess molar enthalpy: 0.0128 ± 0.000287 kcal/mol
[1]; x2 = 0.6993
  excess molar enthalpy: 0.0118 ± 0.000287 kcal/mol
[1]; x2 = 0.7503
  excess molar enthalpy: 0.0104 ± 0.000263 kcal/mol
[1]; x2 = 0.8001
  excess molar enthalpy: 0.00938 ± 0.000263 kcal/mol
[1]; x2 = 0.8575
  excess molar enthalpy: 0.00688 ± 0.000239 kcal/mol
[1]; x2 = 0.9
  excess molar enthalpy: 0.00513 ± 0.000227 kcal/mol
[1]; x2 = 0.95
  excess molar enthalpy: 0.00269 ± 0.000208 kcal/mol

## CCC(C)CC [3-methylpentane]
[2]
  mass density: 659.94 ± 0.92 kg/m3

## CC(C)C(C)C [2,3-dimethylbutane]
[2]
  mass density: 662.36 ± 3.1 kg/m3

## CCCC(C)C [2-methylpentane]
[2]
  mass density: 650.22 ± 0.94 kg/m3
